This is an account of results in US20020146411A1, “Anticoagulant agents useful in treatment of thrombosis” (SmithKline Beecham Corporation, priority 1996, published 2002).

The subject of assay [1] is rat carotid artery thrombosis. The assay is described as follows: Rat carotid artery thrombosis model (FeCl3 injury), Example 3. It is filed as in vivo. An excerpt: In order to evaluate the efficacy of anti-Factor IX antibodies in prevention of arterial thrombosis, the rat carotid artery thrombosis model as reported by Schumacher et al. in J. Cardio. Pharm. 22, 526-533 (1993) was adapted. This model consists of segmental injury to the carotid endothelium by oxygen radicals generated by FeCl3 solution applied on the surface of the carotid artery.
In brief, rats were anesthetized with pentobarbitone sodium, the jugular vein cannulated for intravenous injections and the left femoral artery cannulated for blood pressure and heart rate monitoring. The carotid artery was isolated by aseptic technique via a surgical incision in the neck and equipped with a magnetic flow probe for blood flow measurement. After a period of stabilization, baseline parameters were established for the following variables: carotid blood flow, arterial pressure, heart rate, activated partial thromboplastin time (aPTT) and prothrombin time (PT). Thereafter, a premeasured Whatman filter paper soaked in 50% FeCl3 solution was placed on the carotid artery for 15 minutes for complete injury of the underlying endothelial cells. After removal of the FeCl3 soaked paper, the experiment was followed to completion over 60 minutes. At the end of the experiment, the carotid thrombus was extracted from the carotid artery and weighed.
All agents were administered 15 minutes prior to the onset of carotid injury. The following treatments were examined and compared to the Factor IX mAb BC2.
1. Heparin: 15, 30, 60 or 120 U/kg bolus, followed by infusion of 0.5, 1, 2 or 4 U/kg/min, respectively over 60 minutes
2. Acetylsalicylic acid (ASA, aspirin): 5 mg/kg bolus
3. Anti-Factor IX mAb BC2: 1, 3 or 6 mg/kg bolus, followed by infusion 0.3, 1, or 2 ug/kg/min, respectively over 60 minutes
4. Heparin: 30U/kg bolus+lU/kg/min+ASA at 5 mg/kg
5. Anti-Factor IX mAb BC2: 1 mg/kg+0.3 ug/kg/min+ASA at 5 mg/kg

The next assay has as its system BC2 antibody. The assay can be described thus: BiaCore binding of Factor IX/Factor VII constructs to immobilized BC2. Particulars: for Degree of Binding to BC2: 200 nM construct, 25 mM MOPS pH 7.4, 0.15 M NaCl, 5 mM CaCl2. How it is done: A library of chimeric constructs composed of sequences of Factor IX spliced into the framework of the homologous protein Factor VII was constructed and used to map the epitope for the Factor IX BC2 mAb. See Cheung et al., Thromb. Res. 80, 419-427 (1995). Binding was measured using a BiaCore 2000 surface plasmon resonance device. The BC2 antibody was coupled directly to the chip using the NHS/EDC reaction. Binding was measured by 2 min of contact time at 20 uL/min with 200 nM of each of the given constructs in 25 mM MOPS, pH 7.4, 0.15 M NaCl, 5 mM CaCl2. Dissociation was monitored for 3 min using the same buffer with no protein. No binding was detected to the wild type construct in the presence of 50 mM EDTA.

Entries after “also recorded” stand apart in the source; their conditions may differ.

As to `CC(=O)Oc1ccccc1C(=O)O` [ASA, Acetylsalicylic acid, reference compound], in assay [1], the “effect on carotid artery occlusion (FIG. 6)” value is on record as “only a minor effect” and the “effect on thrombus weight (FIG. 7)” value is given as “only a partial effect”. Besides, the “effect on aPTT at 60 minutes (FIG. 4)” value in assay [1] (regimens of b146-b150, given 15 minutes before injury) is recorded as “did not significantly increase aPTT”.

With “IX K5A: Factor IX having a lysine to alanine substitution at residue 5”, the “Degree of Binding to BC2” value with BC2 antibody is recorded as “exhibit binding to BC2; also recorded: Binds”.

For the compound “Plasma IXa: plasma Factor IXa, wild type Factor IX”, the “Degree of Binding to BC2” value with BC2 antibody was “Binds”.

With Plasma VII: plasma Factor VII, the “Degree of Binding to BC2” value in the assay with BC2 antibody is recorded as “No Binding”.

As to “VII gla (IX 3-6)/IX: chimeric Factor VII/Factor IX construct”, the “Degree of Binding to BC2” value in the assay with BC2 antibody is “Very Low Binding”.

As to “VII gla (IX 3-11)/IX: residues 3-11 of Factor IX gla domain within the Factor VII gla domain”, the “Degree of Binding to BC2” value in the assay on BC2 antibody is “exhibit binding to BC2; also recorded: equivalent to wild type Factor IX; also recorded: Binds”.

Consider “VII gla (IX 9-11)/IX: chimeric Factor VII/Factor IX construct”, for which the “Degree of Binding to BC2” value in the assay on BC2 antibody is reported as “Very Low Binding”.

With “VII gla/IX: chimeric Factor VII/Factor IX construct”, the “Degree of Binding to BC2” value in the assay on BC2 antibody was “No Binding”.

In the case of r-IX: recombinant wild type Factor IX, the “Degree of Binding to BC2” value with BC2 antibody is “Binds”.

“wild type construct: wild type Factor IX construct used in BC2 epitope mapping”: the “binding to BC2 in the presence of EDTA” value with BC2 antibody (50 mM EDTA) is “No binding”.
